From ChEMBL document CHEMBL1201862, “PubChem BioAssay data set” (2004) come the findings set out here.

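Cells were grown in 96-well plates and exposed to each compound for 48 hours at five concentrations; endpoints were interpolated linearly between bracketing concentrations, or set to the highest concentration if not reached. GI50 = concentration required for 50% inhibition of growth.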 Calls of active or inactive are those of the source. Cut-off read from the data, not from the text of the source: active = GI50 up to about 1.1 µM and inactive = higher. A value given as a limit tells only on which side of the number the result lay.

What all share (assay): DTP human tumour cell line panel, 48 h
Assay [1] has as its system A498.
Assay [2] deals with CCRF-CEM.
Assay [3] concerns EKVX.
The test system of assay [4] is HCC 2998.
For assay [5], the system named is HCT-15.
The subject of assay [6] is Hs-578T.
The test system of assay [7] is K562.
Assay [8] relates to KM12.
The subject of assay [9] is MDA-MB-435.
In assay [10] the test system is NCI/ADR-RES.
The test system of assay [11] is OVCAR-5.
Assay [12] deals with OVCAR-8.
Assay [13] relates to SK-MEL-28.
Assay [14] relates to SW-620.
Assay [15] relates to T47D.
Assay [16] concerns U-251.
Assay [17] has as its system UACC-62.
Assay [18] has as its system HL-60.
In assay [19] the test system is HOP-92.
Assay [20] deals with NCI-H522.

For `Cc1n[nH]c(=O)n1/N=C/c1cccs1`, the GI50 – broadly, the concentration at which growth is held to half of that of the control – in [1] is > 100 µM (inactive); in assay [2], > 100 µM (inactive); in assay [3], > 100 µM (inactive); in assay [4] it was > 100 µM (inactive); in assay [5], above 100 µM; in assay [6], 36.5 µM (inactive). The GI50 in [7], in assay [8], in [9], in assay [10], in [11] and in [12] was > 100 µM (inactive) throughout. For the same molecule, the GI50 in assay [13], in assay [14], in assay [15], in [16] and in [17] was > 100 µM (inactive) each time.

Take `Clc1cc2nc(C3CCCO3)[nH]c2cc1Cl` (stereo not drawn): the GI50 in assay [2] was 68.4 µM (inactive); in [3], 87.5 µM (inactive); in assay [4] it was 76.4 µM (inactive); in assay [5], 31.6 µM; in assay [18], 37.7 µM (inactive); in assay [19], 85.3 µM (inactive). Besides, the GI50 in assay [6] was 40.9 µM (inactive); in assay [7], 38.5 µM (inactive); in assay [8] it was 32.7 µM (inactive); in [9] it was 28.2 µM (inactive); in assay [20], 20.4 µM (inactive); in assay [10] it was 43.5 µM (inactive). For the same molecule, the GI50 in assay [11] is > 100 µM (inactive); in assay [12], 57.9 µM (inactive); in assay [13], 78 µM (inactive); in assay [14] it was 45.8 µM (inactive); in [15], 46.2 µM (inactive); in assay [16], > 100 µM (inactive). Moreover, the GI50 in assay [17] is 45.8 µM (inactive).

As to `CCOC(=O)c1cn(C)nc1N/C(C)=C\C(=O)c1ccccc1`, the GI50 in assay [2] was > 100 µM (inactive); in [3], > 100 µM (inactive); in assay [4] it was > 100 µM (inactive); in [5], above 100 µM; in assay [18], > 100 µM (inactive); in assay [19] it was > 100 µM (inactive). For the same molecule, the GI50 in assay [6], in assay [7], in assay [8], in [9], in assay [20] and in assay [10] was > 100 µM (inactive) throughout. Also, the GI50 in [11], in [12], in assay [13], in [14], in [15] and in [16] was > 100 µM (inactive) each time. In assay [17], the GI50 was > 100 µM (inactive).

For `CSc1nc2c(=O)n(-c3ccccc3)c(=S)n(-c3ccccc3)c2s1`, the GI50 is > 100 µM (inactive) in assay [2]; > 100 µM (inactive) in [4]; above 100 µM in assay [5]; > 100 µM (inactive) in assay [18]; 25.4 µM (inactive) in assay [19]; 29.2 µM (inactive) in assay [6]. Moreover, the GI50 was > 100 µM (inactive) in assay [7]; 49 µM (inactive) in assay [8]; > 100 µM (inactive) in assay [9]; > 100 µM (inactive) in assay [20]; 85.1 µM (inactive) in [10]; > 100 µM (inactive) in assay [11]. For the same molecule, the GI50 in assay [12] is > 100 µM (inactive); in [13], > 100 µM (inactive); in assay [14] it was > 100 µM (inactive); in assay [15], > 100 µM (inactive); in [16] it was 38.5 µM (inactive).

Regarding `COc1nc(C)nc2sc3c(c12)CCCC3`, the GI50 is > 100 µM (inactive) in [1]; 38.4 µM (inactive) in assay [3]; > 100 µM (inactive) in [4]; above 100 µM in assay [5]; > 100 µM (inactive) in assay [18]; > 100 µM (inactive) in assay [6]. Moreover, the GI50 in assay [7], in assay [8], in assay [9], in assay [20], in [10] and in assay [11] was > 100 µM (inactive) throughout. In addition, the GI50 in assay [12], in assay [13], in assay [14], in assay [15], in assay [16] and in [17] was > 100 µM (inactive) each time.

For the molecule `Cc1ccc(/C=C/C(=O)Oc2ccc(/C=C3\CCC/C(=C\c4ccc(OC(=O)/C=C/c5ccc(C)cc5)cc4)C3=O)cc2)cc1`, the GI50 in assay [2] is 60.8 µM (inactive); in assay [3] it was > 100 µM (inactive); in assay [4] it was > 100 µM (inactive); in assay [5] it was above 100 µM; in assay [18], 57.4 µM (inactive); in [19], 77.6 µM (inactive). In addition, the GI50 in assay [6] is 19 µM (inactive); in [8], > 100 µM (inactive); in assay [9] it was > 100 µM (inactive); in [20] it was > 100 µM (inactive); in [10], 59.3 µM (inactive); in assay [11] it was > 100 µM (inactive). Further, the GI50 in [12] was 67.1 µM (inactive); in assay [13] it was > 100 µM (inactive); in assay [14], > 100 µM (inactive); in [15], 92.3 µM (inactive); in assay [16] it was 34 µM (inactive); in assay [17], 74.1 µM (inactive).

With `Cc1cc(N(CCC#N)CCC#N)ccc1C(/N=N/c1ccc(Cl)cc1)=N\NC(=O)c1cc(Cl)ccc1O`, the GI50 is 29.1 µM (inactive) in assay [1]; 37 µM (inactive) in assay [2]; 36.4 µM (inactive) in [3]; 29.9 µM (inactive) in assay [4]; 39.4 µM in [5]; 19.5 µM (inactive) in assay [6]. The GI50 in assay [7] is 76.2 µM (inactive); in assay [8], 58.9 µM (inactive); in assay [9], > 100 µM (inactive); in assay [20], 16.7 µM (inactive); in assay [10], 52.8 µM (inactive); in assay [11], > 100 µM (inactive). In addition, the GI50 in assay [12] is 35.6 µM (inactive); in [15] it was 31.6 µM (inactive); in assay [16], 37.1 µM (inactive); in assay [17] it was 43.3 µM (inactive).

As for `Cc1[nH]n(-c2nc3c(c(=O)[nH]2)CCC3)c(=O)c1CCO`, the GI50 in assay [1] was > 100 µM (inactive); in [2] it was > 100 µM (inactive); in [3], > 100 µM (inactive); in assay [4], > 100 µM (inactive); in assay [5], above 100 µM; in [18], > 100 µM (inactive). In addition, the GI50 in [6], in assay [7], in assay [8], in assay [9], in assay [20] and in assay [10] was > 100 µM (inactive) throughout. Further, the GI50 in assay [11], in assay [12], in assay [13], in assay [14], in assay [15] and in [16] was > 100 µM (inactive) in each case. Moreover, in [17], the GI50 was > 100 µM (inactive).
